Measurements reported in the kinase profiling compilation of Christmann-Franck et al. (2016).
Each block holds one compound with its values, some of them ahead of it.

Columns and labels:
Assay in all cases: radiometric filter-binding kinase assay, Kinase HotSpot
Details in all cases: compound 0.5 µM; ATP 10 µM
ADRBK2 (human) = ADRBK2 (human) (UniProt P35626)
TEK (human) = TEK (human) (UniProt Q02763)
MAP4K4 (human) = MAP4K4 (human) (UniProt O95819)
SRPK2 (human) = SRPK2 (human) (UniProt P78362)
PRKCG (human) = PRKCG (human) (UniProt P05129)
AKT3 (human) = AKT3 (human) (UniProt Q9Y243)
STK4 (human) = STK4 (human) (UniProt Q13043)
LCK (human) = LCK (human) (UniProt P06239)
DAPK2 (human) = DAPK2 (human) (UniProt Q9UIK4)
MAP3K7 TAB1 (human) = MAP3K7 TAB1 (human) (UniProt O43318+Q15750)
NLK (human) = NLK (human) (UniProt Q9UBE8)
MUSK (human) = MUSK (human) (UniProt O15146)
MET (human) = MET (human) (UniProt P08581)
GRK5 (human) = GRK5 (human) (UniProt P34947)
DSTYK (human) = DSTYK (human) (UniProt Q6XUX3)
PRKCB2 (human) = PRKCB2 (human) (UniProt P05771)
MARK1 (human) = MARK1 (human) (UniProt Q9P0L2)
MAP3K11 (human) = MAP3K11 (human) (UniProt Q16584)
IGF1R (human) = IGF1R (human) (UniProt P08069)
MAPK13 (human) = MAPK13 (human) (UniProt O15264)
SRC (human) = SRC (human) (UniProt P12931)
MAP3K2 (human) = MAP3K2 (human) (UniProt Q9Y2U5)
CLK2 (human) = CLK2 (human) (UniProt P49760)
DCLK2 (human) = DCLK2 (human) (UniProt Q8N568)
WNK2 (human) = WNK2 (human) (UniProt Q9Y3S1)
EPHA1 (human) = EPHA1 (human) (UniProt P21709)
STK38 (human) = STK38 (human) (UniProt Q15208)
NTRK2 (human) = NTRK2 (human) (UniProt Q16620)
CAMK2B (human) = CAMK2B (human) (UniProt Q13554)
NTRK3 (human) = NTRK3 (human) (UniProt Q16288)
MAP3K9 (human) = MAP3K9 (human) (UniProt P80192)
MINK1 (human) = MINK1 (human) (UniProt Q8N4C8)
INSR (human) = INSR (human) (UniProt P06213)
PAK1 (human) = PAK1 (human) (UniProt Q13153)
CDK6 CCND1 (human) = CDK6 CCND1 (human) (UniProt Q00534+P24385)
RPS6KA5 KD2 (human) = RPS6KA5 KD2 (human) (UniProt O75582)
STK39 (human) = STK39 (human) (UniProt Q9UEW8)
STK17A (human) = STK17A (human) (UniProt Q9UEE5)
STK11 (human) = STK11 (human) (UniProt Q15831)
ERBB2 (human) = ERBB2 (human) (UniProt P04626)
PRKD2 (human) = PRKD2 (human) (UniProt Q9BZL6)
MYLK (human) = MYLK (human) (UniProt Q15746)

Sequence of PRKCB2 (human) (P05771 whole entry, looked up): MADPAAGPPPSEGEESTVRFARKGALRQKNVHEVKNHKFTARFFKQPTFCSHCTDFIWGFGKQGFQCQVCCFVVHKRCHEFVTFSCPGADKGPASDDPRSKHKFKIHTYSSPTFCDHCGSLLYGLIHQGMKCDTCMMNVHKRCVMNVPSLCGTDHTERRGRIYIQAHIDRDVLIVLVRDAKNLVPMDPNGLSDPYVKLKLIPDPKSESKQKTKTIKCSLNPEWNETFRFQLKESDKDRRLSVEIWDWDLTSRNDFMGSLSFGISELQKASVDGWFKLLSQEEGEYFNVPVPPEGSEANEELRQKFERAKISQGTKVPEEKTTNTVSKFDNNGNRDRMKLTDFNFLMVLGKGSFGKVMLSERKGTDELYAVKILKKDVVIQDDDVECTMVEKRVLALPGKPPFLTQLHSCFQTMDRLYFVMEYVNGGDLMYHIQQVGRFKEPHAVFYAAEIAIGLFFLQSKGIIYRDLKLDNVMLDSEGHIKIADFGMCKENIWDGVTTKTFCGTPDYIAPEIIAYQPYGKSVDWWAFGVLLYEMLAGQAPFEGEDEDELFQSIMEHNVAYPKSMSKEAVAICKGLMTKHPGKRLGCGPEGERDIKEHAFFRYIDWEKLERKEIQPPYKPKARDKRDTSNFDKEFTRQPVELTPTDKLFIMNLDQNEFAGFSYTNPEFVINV
Sequence of WNK2 (human) (Q9Y3S1 whole entry, looked up): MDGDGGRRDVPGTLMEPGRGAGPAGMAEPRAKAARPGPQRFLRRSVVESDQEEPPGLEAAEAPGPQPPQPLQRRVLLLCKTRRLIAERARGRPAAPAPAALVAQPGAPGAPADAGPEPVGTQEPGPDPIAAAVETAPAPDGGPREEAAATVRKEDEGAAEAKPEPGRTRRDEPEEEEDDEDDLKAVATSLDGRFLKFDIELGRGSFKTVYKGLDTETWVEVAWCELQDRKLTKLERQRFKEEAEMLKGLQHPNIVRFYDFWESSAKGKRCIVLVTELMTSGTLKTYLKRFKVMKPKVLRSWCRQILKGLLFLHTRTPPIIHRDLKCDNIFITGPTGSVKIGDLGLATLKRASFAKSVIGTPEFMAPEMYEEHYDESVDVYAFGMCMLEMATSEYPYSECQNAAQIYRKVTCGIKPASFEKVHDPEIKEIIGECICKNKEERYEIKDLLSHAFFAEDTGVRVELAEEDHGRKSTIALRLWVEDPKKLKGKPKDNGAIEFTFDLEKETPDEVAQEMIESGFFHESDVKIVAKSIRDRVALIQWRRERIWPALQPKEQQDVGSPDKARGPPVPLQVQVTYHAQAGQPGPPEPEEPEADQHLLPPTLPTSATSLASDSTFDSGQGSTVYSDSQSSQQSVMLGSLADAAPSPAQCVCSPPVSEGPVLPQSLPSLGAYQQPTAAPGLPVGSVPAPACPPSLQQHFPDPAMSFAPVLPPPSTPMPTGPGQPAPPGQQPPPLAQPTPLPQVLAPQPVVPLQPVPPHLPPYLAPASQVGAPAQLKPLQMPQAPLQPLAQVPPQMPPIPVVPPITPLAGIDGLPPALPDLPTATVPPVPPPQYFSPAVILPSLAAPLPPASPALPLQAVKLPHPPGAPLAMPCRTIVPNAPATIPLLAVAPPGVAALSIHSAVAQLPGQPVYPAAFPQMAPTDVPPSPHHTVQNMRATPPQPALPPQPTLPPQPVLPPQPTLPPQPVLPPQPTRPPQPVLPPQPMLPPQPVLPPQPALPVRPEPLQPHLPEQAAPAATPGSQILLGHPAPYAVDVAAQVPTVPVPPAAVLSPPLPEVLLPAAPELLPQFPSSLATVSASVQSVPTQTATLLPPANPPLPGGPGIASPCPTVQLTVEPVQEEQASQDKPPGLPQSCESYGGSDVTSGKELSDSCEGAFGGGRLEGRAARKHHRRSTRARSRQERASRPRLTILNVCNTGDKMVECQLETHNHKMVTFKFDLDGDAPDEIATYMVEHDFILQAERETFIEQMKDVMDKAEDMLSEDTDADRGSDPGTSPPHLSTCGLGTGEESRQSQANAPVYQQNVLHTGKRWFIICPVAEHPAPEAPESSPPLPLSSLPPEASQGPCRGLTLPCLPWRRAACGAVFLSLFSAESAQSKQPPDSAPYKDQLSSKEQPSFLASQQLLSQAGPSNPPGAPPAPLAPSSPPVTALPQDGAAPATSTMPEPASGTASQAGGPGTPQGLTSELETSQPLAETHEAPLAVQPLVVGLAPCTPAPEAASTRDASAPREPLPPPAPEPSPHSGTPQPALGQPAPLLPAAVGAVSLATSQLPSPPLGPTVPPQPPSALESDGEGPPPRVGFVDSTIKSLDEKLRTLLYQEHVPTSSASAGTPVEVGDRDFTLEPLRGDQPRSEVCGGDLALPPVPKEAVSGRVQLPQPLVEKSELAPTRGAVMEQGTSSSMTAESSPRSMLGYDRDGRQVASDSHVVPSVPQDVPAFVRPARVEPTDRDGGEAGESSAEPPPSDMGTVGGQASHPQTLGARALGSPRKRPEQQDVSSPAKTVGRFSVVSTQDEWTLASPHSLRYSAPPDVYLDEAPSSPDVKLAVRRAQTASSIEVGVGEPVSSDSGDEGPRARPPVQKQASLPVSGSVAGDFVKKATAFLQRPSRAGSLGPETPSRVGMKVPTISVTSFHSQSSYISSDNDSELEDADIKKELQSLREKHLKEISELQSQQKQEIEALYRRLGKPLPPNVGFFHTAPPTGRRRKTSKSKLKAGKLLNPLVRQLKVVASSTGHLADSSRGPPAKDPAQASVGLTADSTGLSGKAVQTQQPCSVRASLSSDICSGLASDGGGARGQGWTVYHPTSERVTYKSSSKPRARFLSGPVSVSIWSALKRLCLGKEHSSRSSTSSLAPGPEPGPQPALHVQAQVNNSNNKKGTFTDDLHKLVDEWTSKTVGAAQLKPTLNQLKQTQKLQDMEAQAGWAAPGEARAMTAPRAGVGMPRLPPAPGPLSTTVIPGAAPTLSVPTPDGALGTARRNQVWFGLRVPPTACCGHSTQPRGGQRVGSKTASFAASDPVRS
Sequence of NLK (human) (Q9UBE8 whole entry, looked up): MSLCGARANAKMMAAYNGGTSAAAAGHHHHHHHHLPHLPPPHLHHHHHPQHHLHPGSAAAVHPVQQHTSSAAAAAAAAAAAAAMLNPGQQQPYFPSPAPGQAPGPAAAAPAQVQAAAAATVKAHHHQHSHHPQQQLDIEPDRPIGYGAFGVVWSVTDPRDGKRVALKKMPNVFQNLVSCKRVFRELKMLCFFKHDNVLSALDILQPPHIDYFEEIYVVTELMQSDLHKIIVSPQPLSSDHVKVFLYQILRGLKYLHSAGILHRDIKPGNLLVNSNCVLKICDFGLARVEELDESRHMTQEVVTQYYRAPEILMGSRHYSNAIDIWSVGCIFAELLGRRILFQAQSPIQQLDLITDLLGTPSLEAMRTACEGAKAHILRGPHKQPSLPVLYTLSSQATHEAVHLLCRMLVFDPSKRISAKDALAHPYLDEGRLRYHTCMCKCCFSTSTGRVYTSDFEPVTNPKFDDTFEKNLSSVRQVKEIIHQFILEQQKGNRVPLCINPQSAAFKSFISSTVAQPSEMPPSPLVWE
Sequence of MUSK (human) (O15146 whole entry, looked up): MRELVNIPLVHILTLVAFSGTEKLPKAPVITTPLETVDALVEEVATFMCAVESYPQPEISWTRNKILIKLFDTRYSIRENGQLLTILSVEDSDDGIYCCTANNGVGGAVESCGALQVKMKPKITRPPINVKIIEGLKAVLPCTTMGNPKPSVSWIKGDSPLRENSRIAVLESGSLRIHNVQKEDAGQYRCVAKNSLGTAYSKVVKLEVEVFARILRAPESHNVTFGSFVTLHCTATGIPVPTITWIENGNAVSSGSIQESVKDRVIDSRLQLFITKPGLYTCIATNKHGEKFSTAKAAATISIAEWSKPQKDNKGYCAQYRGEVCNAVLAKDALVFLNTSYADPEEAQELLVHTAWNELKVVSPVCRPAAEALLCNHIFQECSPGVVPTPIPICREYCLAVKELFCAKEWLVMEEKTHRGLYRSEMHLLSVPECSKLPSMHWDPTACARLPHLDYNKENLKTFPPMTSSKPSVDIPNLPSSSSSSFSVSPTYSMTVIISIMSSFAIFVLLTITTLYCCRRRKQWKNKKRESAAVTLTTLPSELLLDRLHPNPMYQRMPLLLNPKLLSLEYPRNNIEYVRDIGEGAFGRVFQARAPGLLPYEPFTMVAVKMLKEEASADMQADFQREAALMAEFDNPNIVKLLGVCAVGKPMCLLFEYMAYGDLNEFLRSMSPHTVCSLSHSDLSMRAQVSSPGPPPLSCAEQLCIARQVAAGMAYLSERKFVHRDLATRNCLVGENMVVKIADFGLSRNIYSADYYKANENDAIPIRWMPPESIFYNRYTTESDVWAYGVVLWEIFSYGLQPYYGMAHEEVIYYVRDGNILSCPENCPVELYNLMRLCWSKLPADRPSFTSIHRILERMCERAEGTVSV
Sequence of STK17A (human) (Q9UEE5 whole entry, looked up): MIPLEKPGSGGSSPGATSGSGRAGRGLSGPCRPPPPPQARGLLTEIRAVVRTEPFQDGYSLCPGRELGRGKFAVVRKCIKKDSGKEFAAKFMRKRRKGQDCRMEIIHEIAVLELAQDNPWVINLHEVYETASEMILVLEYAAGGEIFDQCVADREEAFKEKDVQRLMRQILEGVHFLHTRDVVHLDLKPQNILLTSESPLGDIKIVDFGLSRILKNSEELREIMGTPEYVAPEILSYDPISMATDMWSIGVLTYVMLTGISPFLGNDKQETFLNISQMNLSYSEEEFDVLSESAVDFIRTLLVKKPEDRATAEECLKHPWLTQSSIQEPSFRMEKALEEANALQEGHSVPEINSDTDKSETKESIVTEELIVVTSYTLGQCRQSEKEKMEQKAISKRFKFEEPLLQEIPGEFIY

Structure (SMILES): CCCC(=O)Oc1ccc2[nH]c(C(=O)c3cc4ccccc4[nH]3)cc2c1
residual activity (ADRBK2 (human)): 101%
residual activity (TEK (human)): 100%
residual activity (MAP4K4 (human)): 97.3%
residual activity (SRPK2 (human)): 89.4%
residual activity (PRKCG (human)): 99%
residual activity (AKT3 (human)): 101%
residual activity (STK4 (human)): 96.8%
residual activity (LCK (human)): 94%
residual activity (DAPK2 (human)): 88.4%
residual activity (MAP3K7 TAB1 (human)): 92.1%
residual activity (NLK (human)): 106%
residual activity (MUSK (human)): 79.8%
residual activity (MET (human)): 103%
residual activity (GRK5 (human)): 100%
residual activity (DSTYK (human)): 94.9%
residual activity (PRKCB2 (human)): 102%
residual activity (MARK1 (human)): 96.4%
residual activity (MAP3K11 (human)): 98.7%
residual activity (IGF1R (human)): 88.3%
residual activity (MAPK13 (human)): 103%
residual activity (SRC (human)): 97%
residual activity (MAP3K2 (human)): 81.7%
residual activity (CLK2 (human)): 94.3%
residual activity (DCLK2 (human)): 89.2%
residual activity (WNK2 (human)): 113%
residual activity (EPHA1 (human)): 88.8%
residual activity (STK38 (human)): 96.9%
residual activity (NTRK2 (human)): 89.8%
residual activity (CAMK2B (human)): 90%
residual activity (NTRK3 (human)): 95.9%
residual activity (MAP3K9 (human)): 97.7%
residual activity (MINK1 (human)): 93.8%
residual activity (INSR (human)): 101%
residual activity (PAK1 (human)): 95.8%
residual activity (CDK6 CCND1 (human)): 92.7%
residual activity (RPS6KA5 KD2 (human)): 95.3%
residual activity (STK39 (human)): 117%
residual activity (STK17A (human)): 90.9%
residual activity (STK11 (human)): 101%
residual activity (ERBB2 (human)): 85.9%
residual activity (PRKD2 (human)): 91.7%
residual activity (MYLK (human)): 102%

residual activity (ADRBK2 (human)): 92.2%
residual activity (TEK (human)): 94.3%
residual activity (MAP4K4 (human)): 98.8%
residual activity (SRPK2 (human)): 93.4%
residual activity (PRKCG (human)): 96.1%
residual activity (AKT3 (human)): 98.2%
residual activity (STK4 (human)): 77.8%
residual activity (LCK (human)): 1.12%
residual activity (DAPK2 (human)): 87.6%
residual activity (MAP3K7 TAB1 (human)): 92.3%
residual activity (NLK (human)): 96.9%
residual activity (MUSK (human)): 115%
residual activity (MET (human)): 110%
residual activity (GRK5 (human)): 102%
residual activity (DSTYK (human)): 100%
residual activity (PRKCB2 (human)): 107%
residual activity (MARK1 (human)): 94.1%
residual activity (MAP3K11 (human)): 92.9%
residual activity (IGF1R (human)): 104%
residual activity (MAPK13 (human)): 95.3%
residual activity (SRC (human)): 13.4%
residual activity (MAP3K2 (human)): 83.8%
residual activity (CLK2 (human)): 95.2%
residual activity (DCLK2 (human)): 99.5%
residual activity (WNK2 (human)): 102%
residual activity (EPHA1 (human)): 101%
residual activity (STK38 (human)): 99.3%
residual activity (NTRK2 (human)): 87%
residual activity (CAMK2B (human)): 102%
residual activity (NTRK3 (human)): 67.9%
residual activity (MAP3K9 (human)): 103%
residual activity (MINK1 (human)): 105%
residual activity (INSR (human)): 103%
residual activity (PAK1 (human)): 96%
residual activity (CDK6 CCND1 (human)): 98.2%
residual activity (RPS6KA5 KD2 (human)): 90.5%
residual activity (STK39 (human)): 84.8%
residual activity (STK17A (human)): 96.3%
residual activity (STK11 (human)): 101%
residual activity (ERBB2 (human)): 101%
residual activity (PRKD2 (human)): 91.5%
residual activity (MYLK (human)): 98.4%
Structure (SMILES): Nc1ncnc2c1c(-c1ccc(Oc3ccccc3)cc1)cn2C1CCCC1

Structure (SMILES): CCN(CC)CCNC(=O)c1c(C)[nH]c(/C=C2\C(=O)Nc3ccc(Cl)cc32)c1C
residual activity (ADRBK2 (human)): 97.8%
residual activity (TEK (human)): 98.2%
residual activity (MAP4K4 (human)): 4.33%
residual activity (SRPK2 (human)): 93.7%
residual activity (PRKCG (human)): 101%
residual activity (AKT3 (human)): 84.2%
residual activity (STK4 (human)): 2.98%
residual activity (LCK (human)): 11.8%
residual activity (DAPK2 (human)): 86.7%
residual activity (MAP3K7 TAB1 (human)): 3.51%
residual activity (NLK (human)): 101%
residual activity (MUSK (human)): 63.5%
residual activity (MET (human)): 77%
residual activity (GRK5 (human)): 82.7%
residual activity (DSTYK (human)): 105%
residual activity (PRKCB2 (human)): 110%
residual activity (MARK1 (human)): 18.1%
residual activity (MAP3K11 (human)): 21%
residual activity (IGF1R (human)): 35.2%
residual activity (MAPK13 (human)): 104%
residual activity (SRC (human)): 26%
residual activity (MAP3K2 (human)): 20.1%
residual activity (CLK2 (human)): 15.8%
residual activity (DCLK2 (human)): 82.8%
residual activity (WNK2 (human)): 101%
residual activity (EPHA1 (human)): 89.4%
residual activity (STK38 (human)): 95.8%
residual activity (NTRK2 (human)): 8.43%
residual activity (CAMK2B (human)): 27.3%
residual activity (NTRK3 (human)): 1.87%
residual activity (MAP3K9 (human)): 49.6%
residual activity (MINK1 (human)): 4.4%
residual activity (INSR (human)): 30.1%
residual activity (PAK1 (human)): 93.4%
residual activity (CDK6 CCND1 (human)): 27.8%
residual activity (RPS6KA5 KD2 (human)): 59%
residual activity (STK39 (human)): 81.9%
residual activity (STK17A (human)): 16.1%
residual activity (STK11 (human)): 80.7%
residual activity (ERBB2 (human)): 102%
residual activity (PRKD2 (human)): 11.9%
residual activity (MYLK (human)): 17.6%

Structure (SMILES): N#C/C(=C(/N)Sc1ccc(N)cc1)c1ccccc1C(F)(F)F
residual activity (ADRBK2 (human)): 101%
residual activity (TEK (human)): 104%
residual activity (MAP4K4 (human)): 93.4%
residual activity (SRPK2 (human)): 99.5%
residual activity (PRKCG (human)): 99.5%
residual activity (AKT3 (human)): 96.2%
residual activity (STK4 (human)): 89.7%
residual activity (LCK (human)): 107%
residual activity (DAPK2 (human)): 112%
residual activity (MAP3K7 TAB1 (human)): 93.5%
residual activity (NLK (human)): 108%
residual activity (MUSK (human)): 91.9%
residual activity (MET (human)): 77.2%
residual activity (GRK5 (human)): 102%
residual activity (DSTYK (human)): 113%
residual activity (PRKCB2 (human)): 103%
residual activity (MARK1 (human)): 99.9%
residual activity (MAP3K11 (human)): 99.9%
residual activity (IGF1R (human)): 97.4%
residual activity (MAPK13 (human)): 104%
residual activity (SRC (human)): 94.1%
residual activity (MAP3K2 (human)): 115%
residual activity (CLK2 (human)): 100%
residual activity (DCLK2 (human)): 99.1%
residual activity (WNK2 (human)): 109%
residual activity (EPHA1 (human)): 100%
residual activity (STK38 (human)): 93.1%
residual activity (NTRK2 (human)): 103%
residual activity (CAMK2B (human)): 93.5%
residual activity (NTRK3 (human)): 101%
residual activity (MAP3K9 (human)): 85.9%
residual activity (MINK1 (human)): 104%
residual activity (INSR (human)): 101%
residual activity (PAK1 (human)): 94.3%
residual activity (CDK6 CCND1 (human)): 98%
residual activity (RPS6KA5 KD2 (human)): 97.9%
residual activity (STK39 (human)): 94.6%
residual activity (STK17A (human)): 82.6%
residual activity (STK11 (human)): 102%
residual activity (ERBB2 (human)): 93%
residual activity (PRKD2 (human)): 93.4%
residual activity (MYLK (human)): 94.9%
